Results from ChEMBL document CHEMBL2086238, “Identification of ETP-46321, a potent and orally bioavailable PI3K α, δ inhibitor” (Bioorg Med Chem Lett, 2012).
Calls of active or inactive are those of the source. No cut-off for these calls is given here.

Tests used:
[1] = Stability in human liver microsomes at 1 uM incubated for 15 mins; assay type: ADME, Microsome; conditions: read-out: Stability
CYP1A2 = target: T1, CYP1A2 (Homo sapiens, UniProt P05177); assay: Inhibition of CYP1A2 at 10 uM; assay type: ADME
T1 sequence (P05177 whole entry): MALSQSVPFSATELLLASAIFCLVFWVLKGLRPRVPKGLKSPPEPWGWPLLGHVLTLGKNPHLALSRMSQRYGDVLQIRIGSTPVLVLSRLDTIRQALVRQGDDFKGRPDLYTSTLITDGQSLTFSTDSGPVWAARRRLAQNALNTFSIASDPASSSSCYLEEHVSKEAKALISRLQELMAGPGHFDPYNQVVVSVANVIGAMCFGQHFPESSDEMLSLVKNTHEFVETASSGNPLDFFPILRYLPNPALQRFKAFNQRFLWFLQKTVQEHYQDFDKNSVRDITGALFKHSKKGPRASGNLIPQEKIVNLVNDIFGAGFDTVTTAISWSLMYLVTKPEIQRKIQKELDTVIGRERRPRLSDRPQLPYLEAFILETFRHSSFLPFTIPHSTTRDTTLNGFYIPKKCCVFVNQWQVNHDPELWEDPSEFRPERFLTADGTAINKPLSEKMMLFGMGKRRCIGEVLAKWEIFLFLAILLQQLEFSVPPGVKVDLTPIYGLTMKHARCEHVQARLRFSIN

PI3K p110 beta/p85 alpha = PI3K p110 beta/p85 alpha (Homo sapiens, UniProt P42338); assay: Inhibition of human PI3Kbeta (p110beta/p85alpha) by ADP accumulation based HTRF assay; assay type: protein-complex assay; conditions: read-out: Ki(app)
[2] = target: PI3-kinase p110-delta/p85-alpha (Homo sapiens, UniProt O00329); assay: Inhibition of human PI3Kdelta (p110delta/p85alpha) by ADP accumulation based HTRF assay; assay type: protein-complex assay; conditions: read-out: Ki(app)
[3] = target: Phosphatidylinositol 4,5-bisphosphate 3-kinase catalytic subunit gamma isoform (Homo sapiens, UniProt P48736); assay: Inhibition of human PI3Kgamma by ADP accumulation based HTRF assay; conditions: read-out: Ki(app)
Chain of Phosphatidylinositol 4,5-bisphosphate 3-kinase catalytic subunit gamma isoform (P48736 whole entry, canonical isoform): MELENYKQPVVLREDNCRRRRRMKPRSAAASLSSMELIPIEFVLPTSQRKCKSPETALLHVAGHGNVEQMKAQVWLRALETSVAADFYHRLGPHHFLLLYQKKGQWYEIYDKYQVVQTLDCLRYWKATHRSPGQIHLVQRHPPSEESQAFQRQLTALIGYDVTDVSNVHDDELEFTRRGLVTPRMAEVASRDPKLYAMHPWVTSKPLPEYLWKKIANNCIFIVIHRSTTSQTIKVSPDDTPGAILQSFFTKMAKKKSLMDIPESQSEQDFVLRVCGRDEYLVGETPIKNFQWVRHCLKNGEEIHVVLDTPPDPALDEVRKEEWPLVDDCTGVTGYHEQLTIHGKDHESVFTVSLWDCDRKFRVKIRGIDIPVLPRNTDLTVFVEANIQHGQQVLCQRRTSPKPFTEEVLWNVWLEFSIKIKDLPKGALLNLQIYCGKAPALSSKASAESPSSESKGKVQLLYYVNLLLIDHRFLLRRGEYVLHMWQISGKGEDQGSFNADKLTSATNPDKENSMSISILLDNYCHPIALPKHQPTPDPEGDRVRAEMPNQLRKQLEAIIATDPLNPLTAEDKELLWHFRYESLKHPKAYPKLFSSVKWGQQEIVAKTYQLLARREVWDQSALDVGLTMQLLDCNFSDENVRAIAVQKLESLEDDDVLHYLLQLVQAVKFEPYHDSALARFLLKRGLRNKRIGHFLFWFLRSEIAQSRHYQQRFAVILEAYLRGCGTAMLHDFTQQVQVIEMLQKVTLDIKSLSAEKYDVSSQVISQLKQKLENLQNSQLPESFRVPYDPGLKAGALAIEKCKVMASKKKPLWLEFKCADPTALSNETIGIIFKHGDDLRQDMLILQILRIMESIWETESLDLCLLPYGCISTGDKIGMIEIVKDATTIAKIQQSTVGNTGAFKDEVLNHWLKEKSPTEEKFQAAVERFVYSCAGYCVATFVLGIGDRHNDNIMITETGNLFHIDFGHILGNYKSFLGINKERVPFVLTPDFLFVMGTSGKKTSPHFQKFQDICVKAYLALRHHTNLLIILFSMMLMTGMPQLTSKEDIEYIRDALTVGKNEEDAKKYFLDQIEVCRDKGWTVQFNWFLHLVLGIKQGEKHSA

[4] = test system: Serine/threonine-protein kinase B-raf (Homo sapiens), P15056 [V600E]; assay: Inhibition of BRAF V600E mutant at 1 uM
Chain of Serine/threonine-protein kinase B-raf (Homo sapiens), P15056 [V600E] (P15056 whole entry V600E): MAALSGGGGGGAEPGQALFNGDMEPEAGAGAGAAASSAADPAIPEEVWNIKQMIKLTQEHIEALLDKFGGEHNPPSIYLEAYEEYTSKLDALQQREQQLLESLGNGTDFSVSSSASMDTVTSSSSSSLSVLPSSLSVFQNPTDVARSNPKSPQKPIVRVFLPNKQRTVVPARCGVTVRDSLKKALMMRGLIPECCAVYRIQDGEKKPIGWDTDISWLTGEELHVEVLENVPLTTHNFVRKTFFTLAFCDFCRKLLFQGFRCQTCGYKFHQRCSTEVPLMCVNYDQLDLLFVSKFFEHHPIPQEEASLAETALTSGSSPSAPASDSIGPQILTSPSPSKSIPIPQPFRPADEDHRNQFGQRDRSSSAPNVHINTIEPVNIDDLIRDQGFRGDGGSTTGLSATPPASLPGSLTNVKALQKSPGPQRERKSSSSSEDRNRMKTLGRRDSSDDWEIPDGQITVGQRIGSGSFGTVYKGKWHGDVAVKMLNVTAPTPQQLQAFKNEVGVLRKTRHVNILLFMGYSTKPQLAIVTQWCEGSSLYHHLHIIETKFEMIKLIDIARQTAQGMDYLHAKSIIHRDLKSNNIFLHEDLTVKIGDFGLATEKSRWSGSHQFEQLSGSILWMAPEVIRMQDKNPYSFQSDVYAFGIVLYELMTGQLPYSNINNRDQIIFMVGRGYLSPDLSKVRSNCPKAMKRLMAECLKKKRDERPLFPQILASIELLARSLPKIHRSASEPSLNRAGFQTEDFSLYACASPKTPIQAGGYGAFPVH

[5] = target: T2, Inhibitor of nuclear factor kappa-B kinase subunit beta (Homo sapiens) (UniProt O14920); assay: Inhibition of IKKbeta at 5 uM
T2 sequence (whole entry): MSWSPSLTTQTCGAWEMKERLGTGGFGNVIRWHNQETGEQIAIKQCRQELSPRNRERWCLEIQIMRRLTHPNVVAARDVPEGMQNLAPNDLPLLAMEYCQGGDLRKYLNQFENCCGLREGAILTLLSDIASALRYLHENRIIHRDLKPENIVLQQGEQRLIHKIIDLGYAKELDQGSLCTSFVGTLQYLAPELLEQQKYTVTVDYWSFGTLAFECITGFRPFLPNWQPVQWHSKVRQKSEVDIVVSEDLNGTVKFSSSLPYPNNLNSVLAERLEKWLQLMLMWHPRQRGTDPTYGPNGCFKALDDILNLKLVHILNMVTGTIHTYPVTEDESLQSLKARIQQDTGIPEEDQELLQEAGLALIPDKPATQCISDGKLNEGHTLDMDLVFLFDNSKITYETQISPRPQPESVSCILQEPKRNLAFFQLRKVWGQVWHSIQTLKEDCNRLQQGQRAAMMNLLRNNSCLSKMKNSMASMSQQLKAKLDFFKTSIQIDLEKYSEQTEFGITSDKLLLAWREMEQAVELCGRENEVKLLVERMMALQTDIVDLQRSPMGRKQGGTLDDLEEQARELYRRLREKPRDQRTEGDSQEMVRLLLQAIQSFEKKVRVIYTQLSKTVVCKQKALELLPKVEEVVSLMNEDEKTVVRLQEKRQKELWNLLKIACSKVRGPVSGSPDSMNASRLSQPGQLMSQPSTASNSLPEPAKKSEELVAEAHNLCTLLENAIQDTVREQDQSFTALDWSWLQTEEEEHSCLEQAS

[6] = target: Hepatocyte growth factor receptor (Homo sapiens) (UniProt P08581); assay: Inhibition of MET at 5 uM
Chain of Hepatocyte growth factor receptor (Homo sapiens) (P08581 whole entry): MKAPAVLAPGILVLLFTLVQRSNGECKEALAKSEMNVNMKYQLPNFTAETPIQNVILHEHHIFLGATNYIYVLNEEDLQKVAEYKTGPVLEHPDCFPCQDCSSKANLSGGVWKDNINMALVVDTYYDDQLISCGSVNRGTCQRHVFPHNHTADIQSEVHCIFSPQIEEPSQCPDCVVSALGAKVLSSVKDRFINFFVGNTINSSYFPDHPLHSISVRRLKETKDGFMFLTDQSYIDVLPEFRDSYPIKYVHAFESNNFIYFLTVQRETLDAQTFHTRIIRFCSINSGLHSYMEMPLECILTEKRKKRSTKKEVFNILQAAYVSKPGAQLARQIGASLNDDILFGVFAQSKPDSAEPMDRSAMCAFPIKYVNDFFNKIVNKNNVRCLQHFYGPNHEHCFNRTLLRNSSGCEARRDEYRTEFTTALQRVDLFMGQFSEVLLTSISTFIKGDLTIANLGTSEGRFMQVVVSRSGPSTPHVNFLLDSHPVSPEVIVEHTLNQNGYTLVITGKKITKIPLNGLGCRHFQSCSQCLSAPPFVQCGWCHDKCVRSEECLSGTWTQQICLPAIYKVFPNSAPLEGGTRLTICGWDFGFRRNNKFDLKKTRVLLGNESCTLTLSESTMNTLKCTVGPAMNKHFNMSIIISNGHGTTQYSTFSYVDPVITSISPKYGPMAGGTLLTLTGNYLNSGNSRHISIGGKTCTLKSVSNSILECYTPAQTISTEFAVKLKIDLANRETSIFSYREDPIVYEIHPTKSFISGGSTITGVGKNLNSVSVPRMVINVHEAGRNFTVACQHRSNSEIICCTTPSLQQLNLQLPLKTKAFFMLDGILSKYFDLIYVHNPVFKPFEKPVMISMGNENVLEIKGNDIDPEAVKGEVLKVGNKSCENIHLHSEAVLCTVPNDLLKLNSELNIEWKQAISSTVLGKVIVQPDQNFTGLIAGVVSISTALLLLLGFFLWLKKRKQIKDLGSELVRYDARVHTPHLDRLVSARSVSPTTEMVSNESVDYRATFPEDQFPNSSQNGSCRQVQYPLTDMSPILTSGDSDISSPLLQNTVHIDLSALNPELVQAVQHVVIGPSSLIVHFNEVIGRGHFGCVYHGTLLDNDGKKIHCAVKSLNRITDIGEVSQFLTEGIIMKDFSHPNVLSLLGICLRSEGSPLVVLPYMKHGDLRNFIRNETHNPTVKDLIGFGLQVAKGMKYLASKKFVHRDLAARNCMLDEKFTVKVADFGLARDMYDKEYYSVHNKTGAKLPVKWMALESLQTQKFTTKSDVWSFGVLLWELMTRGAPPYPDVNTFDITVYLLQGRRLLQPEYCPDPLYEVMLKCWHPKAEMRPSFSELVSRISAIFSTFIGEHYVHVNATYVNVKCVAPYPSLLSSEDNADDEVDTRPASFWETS

[7] = target: Serine/threonine-protein kinase pim-1 (Homo sapiens) (UniProt P11309); assay: Inhibition of PIM1 at 5 uM
Chain of Serine/threonine-protein kinase pim-1 (Homo sapiens) (P11309 whole entry, looked up): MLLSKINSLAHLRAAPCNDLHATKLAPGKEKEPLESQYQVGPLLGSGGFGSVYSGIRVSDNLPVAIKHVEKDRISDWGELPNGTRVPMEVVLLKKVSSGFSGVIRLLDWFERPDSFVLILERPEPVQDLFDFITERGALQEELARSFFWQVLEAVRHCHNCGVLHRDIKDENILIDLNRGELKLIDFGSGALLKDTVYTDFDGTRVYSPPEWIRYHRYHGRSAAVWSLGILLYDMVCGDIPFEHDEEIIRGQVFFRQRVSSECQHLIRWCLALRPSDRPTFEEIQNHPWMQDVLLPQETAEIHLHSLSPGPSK

[8] = target: Ribosomal protein S6 kinase alpha-1 (Homo sapiens) (UniProt Q15418); assay: Inhibition of RPS6KA1 at 5 uM
Chain of Ribosomal protein S6 kinase alpha-1 (Homo sapiens) (Q15418 whole entry): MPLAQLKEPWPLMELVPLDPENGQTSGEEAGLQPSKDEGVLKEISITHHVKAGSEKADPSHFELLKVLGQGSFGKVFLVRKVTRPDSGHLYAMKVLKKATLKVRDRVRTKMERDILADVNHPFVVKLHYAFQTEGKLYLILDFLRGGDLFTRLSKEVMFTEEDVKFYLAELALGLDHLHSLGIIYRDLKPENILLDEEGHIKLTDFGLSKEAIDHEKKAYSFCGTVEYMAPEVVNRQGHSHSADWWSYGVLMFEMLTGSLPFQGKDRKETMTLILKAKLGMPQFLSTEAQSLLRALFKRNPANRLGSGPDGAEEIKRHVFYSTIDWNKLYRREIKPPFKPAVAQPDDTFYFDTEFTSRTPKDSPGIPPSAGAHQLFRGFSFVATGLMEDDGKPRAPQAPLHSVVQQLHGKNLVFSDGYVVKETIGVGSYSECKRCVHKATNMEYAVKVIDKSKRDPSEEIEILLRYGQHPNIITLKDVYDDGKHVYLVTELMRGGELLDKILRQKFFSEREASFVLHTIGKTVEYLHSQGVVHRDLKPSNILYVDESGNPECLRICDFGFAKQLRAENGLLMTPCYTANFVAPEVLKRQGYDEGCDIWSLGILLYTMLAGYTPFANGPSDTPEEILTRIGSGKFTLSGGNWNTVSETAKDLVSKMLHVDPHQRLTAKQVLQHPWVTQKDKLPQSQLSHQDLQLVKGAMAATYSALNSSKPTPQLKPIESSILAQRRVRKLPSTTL

[9] = Clearance in BALB-C mouse; assay type: ADME, organism-based; conditions: in vivo
[10] = Oral bioavailability in BALB-C mouse; assay type: ADME, organism-based; conditions: in vivo
Mus musculus [11] = assay: In-vivo inhibition of PI3Kalpha-mediated AKT Ser 473 phosphorylation in lung of tamoxifen-induced mouse tumor model at 50 mg/kg, po measured 2 to 4 hrs post dose; assay type: functional
Mus musculus [12] = assay: Antitumor activity in tamoxifen-induced mouse tumor model assessed as tumor growth inhibition at 50 mg/kg/day, po for 3 weeks by computed tomography; assay type: functional; conditions: 504 h, read-out: GI
Mus musculus [13] = assay: Antitumor activity in tamoxifen-induced mouse tumor model assessed as reduction in lung [18F]FDG uptake at 50 mg/kg/day, po for 3 weeks by PET-CT method; assay type: functional, organism-based
Mus musculus [14] = assay: Antitumor activity in tamoxifen-induced mouse tumor model assessed as reduction in lung metabolic activity at 50 mg/kg/day, po for 3 weeks by [18F]FDG uptake based PET-CT method; assay type: functional, organism-based
[15] = target: Phosphatidylinositol 4,5-bisphosphate 3-kinase catalytic subunit alpha isoform (Homo sapiens, UniProt P42336, E542K); assay: Inhibition of human PI3Kalpha E542K mutant by ADP accumulation based HTRF assay; conditions: read-out: Ki(app)
[16] = target: Phosphatidylinositol 4,5-bisphosphate 3-kinase catalytic subunit alpha isoform (Homo sapiens, UniProt P42336, E545K); assay: Inhibition of human PI3Kalpha E545K mutant by ADP accumulation based HTRF assay; conditions: read-out: Ki(app)
[17] = target: Phosphatidylinositol 4,5-bisphosphate 3-kinase catalytic subunit alpha isoform (Homo sapiens, UniProt P42336, H1047R); assay: Inhibition of human PI3Kalpha H1047R mutant by ADP accumulation based HTRF assay; conditions: read-out: Ki(app)

SMILES | remaining at 0.25 h, 1 µM [1] | inhibition at 10 µM (CYP1A2) | Ki (PI3K p110 beta/p85 alpha) | Ki [2] | Ki [3] | inhibition [4] | inhibition [5] | inhibition [6] | inhibition [7] | inhibition [8] | clearance [9] | bioavailability [10] | Ki [15] | Ki [16] | Ki [17] | inhibition in vivo at 50 mg/kg (Mus musculus [11]) | inhibition in vivo at 50 mg/kg/day (Mus musculus [12]) | Activity (Mus musculus [13]) | Activity (Mus musculus [14])
Cc1c(CN2CCN(S(C)(=O)=O)CC2)nc2c(N3CCOCC3)nc(-c3cnc(N)nc3)cn12 | 88% | < 30% | 202 nM | 15.6 nM | 59.8 nM | < 30% | < 30% | < 30% | < 30% | < 30% |  |  |  |  |  |  |  |  | 
CS(=O)(=O)N1CCN(Cc2nc3c(N4CCOCC4)nc(-c4cnc(N)nc4)cn3c2Br)CC1 | 70% | < 30% |  |  |  | < 30% | < 30% | < 30% | < 30% | < 30% |  |  |  |  |  |  |  |  | 
CS(=O)(=O)N1CCN(Cc2cn3c(Cl)c(-c4cnc(N)nc4)nc(N4CCOCC4)c3n2)CC1 | 86% | < 30% | 212 nM |  | 84 nM | < 30% | < 30% | < 30% | < 30% | < 30% |  |  | 2.77 nM | 1.73 nM | 3.07 nM |  |  |  | 

Further lines, with some results ahead:

remaining at 0.25 h, 1 µM [1] | inhibition at 10 µM (CYP1A2) | Ki (PI3K p110 beta/p85 alpha) | Ki [2] | Ki [3] | inhibition [4] | inhibition [5] | inhibition [6] | inhibition [7] | inhibition [8] | clearance [9] | bioavailability [10] | Ki [15] | Ki [16] | Ki [17] | SMILES | inhibition in vivo at 50 mg/kg (Mus musculus [11]) | inhibition in vivo at 50 mg/kg/day (Mus musculus [12]) | Activity (Mus musculus [13]) | Activity (Mus musculus [14])
 |  |  |  |  | < 30% | < 30% | < 30% | < 30% | < 30% |  |  |  |  |  | Cc1nc(N)ncc1-c1cn2cc(CN3CCN(S(C)(=O)=O)CC3)nc2c(N2CCOCC2)n1 |  |  |  | 
93% | < 30% |  |  |  | < 30% | < 30% | < 30% | < 30% | < 30% | 10 mL/min/kg | 90% |  |  |  | CS(=O)(=O)N1CCN(Cc2cn3cc(-c4cnc(N)nc4)nc(N4CCOCC4)c3n2)CC1 | > 50% | 51% | Active | Active
